Source: patent publication US12265087B2, “Olfactory receptor as microglia marker and use thereof” (DAEGU GYEONGBUK INSTITUTE OF SCIENCE AND TECHNOLOGY, priority 2019, dated 2025)

System: primary microglia
Assay: mRNA-sequencing of primary microglia (DEGs, GOBP)
Format: cell-based, mouse
Details: Sup MOI 100 or 2-PF 100 μM, 2 hours
Protocol: After a vehicle (control), Sup (MOI 100) or 2-PF (100 μM) treatment for 2 hours, total RNA was isolated from 2×10^6 cells of primary microglia using a RNeasy miniKit (Qiagen, 74104), and analyzed using a Qubit RNA HS assay kit (Thermo Fisher Scientific, Q32852) according to the manufacturer's standard protocol for quantification. The RNA integrity number (RIN) of each sample was measured using the Agilent Technologies 2100 BioAnalyzer, and the RINs of all samples were 8.5 or more, which is suitable for mRNA sequencing. Full-length cDNA was generated using a SMARTer-Seq v4 Ultra Low input RNA Kit (Clontech, 634888) according to the manufacturer's recommended protocol. The first strand synthesis of cDNA was initiated from 10 ng total RNA by adding 1 μl of 3′ SMART CDS primer II A for 3 minutes at 72° C. […] After PCR, the DNA library was purified using AMPure beads and quality was assessed by an Agilent 2100 Bioanalyzer. A DNA library of each sample was quantified using a KAPA library quantification kit (KAPA Biosystems, KK4854) and then pooled. All libraries were sequenced using an Illumina Hiseq2500 instrument to generate dual-indexed 100-bp paired reads, thereby obtaining an average of 58 million reads for each sample. […] The remaining reads were aligned to the mouse reference genome (GRCm38) using TopHat (Trapnell et al., 2009) with default options. […]

CCCCCc1ccco1 [2-PF, 2-pentylfuran]
genes regulated (mRNA-seq): up-regulate genes involved in microglial activation
